Laboratory results as given in patent US20260200903A1, “PHARMACEUTICAL COMPOSITION FOR AMELIORATING MALIGNANT DISEASES” (KINKI UNIVERSITY, priority 2020, published 2026).

Key:
Type in all cases: cell-based
[1] = tested on: SU-DHL-4 cells (diffuse large B-cell lymphoma); test: Cell death inducing effect on SU-DHL-4 cells, trypan blue staining; settings: SU-DHL-4 (DLBCL), cell viability
Experimental: SU-DHL-4 cells (diffuse large B-cell lymphoma) were cultured under 5% CO2 at 37° C.
The culture medium used RPMI-1640 medium with 100 μg/mL penicillin, 100 U/mL streptomycin and fetal bovine serum. SU-DHL-4 cells were seeded into 96-well plates and incubated with each concentration of the compounds was added, and cell viability was determined by the trypan blue staining.
For controls, only 0.5% DMSO (diluted in PBS) used to dissolve the compounds was added. For each concentration, each bar line is indicated by an arrow with the sign “n, a, 1, 2, 3, 4, 5, 6, 7, 8, 9, 10, 11, 12” from left to right. The “1, 3, 5, 7, 9, 11” are omitted from the graph, but the sign “1” shall be indicated by an arrow between the signs “a” and “2”, the sign “3” between the signs “2” and “4”, and other odd numbers shall likewise be indicated by arrows between even numbers before and after.
The sign “n” is the norathyriol (formula (n)) administration group, the sign “a” is the mangiferin 8a (formula (a)) administration group, the sign “1” is the yk-7 (formula (1)) administration group, the sign “2” is the yk-8-1 (formula (2)) administration group, the sign “3” is the yk-8-3 (formula (3)) administration group, the sign “4” is the M7 (formula (4)) administration group, the sign “5” is the M9 (formula (5)) administration group, the sign “6” is the M11 (formula (6)) administration group, the sign “7” is the M12 (formula (7)) administration group, the sign “8” is the M14 (formula (8)) administration group, the sign “9” is the M15 (formula (9)) administration group, the sign “10” is the M16 (formula (10)) administration group, the sign “11” is the M18 (formula (11)) administration group, the sign “12” is the M19 (formula (12)) administration group, respectively. The IC50 values for each compound is also listed in the upper right corner of the figure.

[2] = tested on: phospho-IKK; test: Immunoblotting of phospho-IKK in KMS-28BM cells; settings: 72 h, vs control, same concentrations as for phospho-NIK (0.005-100 μM)
Experimental: Immunoblotting was performed on KMS-28BM cells to investigate the inhibitory effect of each compound administration on NIK inhibition and the activation of IKK, NF-κB p52, and NF-κB p65, which are downstream signals of NIK. As a result, inhibition of NIK activation, inhibition of IKK activity, and inhibition of nuclear translocation of NF-κB p52 and NF-κB p65 were observed (FIG. 15 and FIG. 16).
As a control, compounds untreated KMS-28BM cells were seeded in 150 cm^2 flasks and incubated for 72 h at 37° C. and 5% CO2. KMS-28BM cells were seeded into 150 cm^2 flasks and pre-cultured for 24 h. After incubation, KMS-28BM cells were treated with […], 1 μM norathyriol, 0.5 μM M7 (formula (4)), 1 μM M8 (mangiferin 8a: listed in duplicate), 0.2 μM M9 (formula (5)), 5 μM yk-7 (formula (1)), 0.5 μM yk-8-3 (formula (3)) and 100 μM yk-8-1 (formula (2)) at final concentrations, and incubated for 72 h at 37° C. and 5% CO2. In addition, KMS-28BM cells were also treated with 0.5 μM M19 (formula (12)), 0.5 μM M18 (formula (11)), 0.005 μM M16 (formula (10)), […] (formula (9)), 0.005 μM M14 (formula (8)), 0.05 μM M12 (formula (7)) and […] (formula (6)) at the final concentrations, and incubated for 72 h at 37° C. and 5% CO2. Proteins were extracted from these cell suspensions with cell lysate and used as samples.
The nucleus and cytoplasmic substrate were separated from the cells using the ProteoExtract (registered trademark) Subcellular Proteome Extraction Kit from Merck Ltd. to extract the cytoplasmic and nuclear fractions.
After SDS-PAGE, each sample was transferred to a PVDF membrane and examined using anti-phospho-NIK, anti-NIK, anti-phospho-IKK, anti-IKK, anti-P-actin, anti-NF-κB p52 and anti-NF-κB p65 antibody, and anti-Lamin antibody.
The antibody species is indicated in the vertical direction. Specifically, for anti-phospho-NIK antibody, “Phospho-NIK” was used, for anti-NIK antibody, “NIK” was used, for anti-phospho-IKK antibody, “Phospho-IKK” was used, for anti-IKK antibody, “IKK” was used, for anti-p-actin antibody, “p-actin” was used, for anti-NF-κB p52 antibody, “NF-κB p52 nuclear” was used, for anti-NF-κB p65 antibody, “NF-κB p65 nuclear” was used, and for anti-Lamin antibody, “Lamin” was used.

[3] = tested on: CD20; test: CD20 expression in L363 cells, flow cytometry; settings: 10 days, concentration lower than the IC50 (0.005-50 μM), compared to the positive control
Experimental: As a control, compounds untreated L363 cells were seeded in 75 cm^2 flasks and incubated for 10 days at 37° C. and 5% CO2. L363 cells were seeded into 75 cm^2 flasks and pre-cultured for 4 h. After incubation, L363 cells were treated with 0.1 μM M7, 0.05 μM M9, 0.1 μM yk-7, 0.1 μM yk-8-3, 50 μM yk-8-1, 0.1 μM M11, 0.01 μM M12, 0.005 μM M14, 0.005 μM M15, 0.005 μM M16, 1 μM M18, and 1 μM M19 at final concentrations, and incubated for 10 days at 37° C. and 5% CO2. This added amount is a concentration lower than the IC50 of the above compounds for L363 cells. After 10 days of incubation, cells were stained with anti-CD20 antibody, a B cell marker, and CD20 expression was measured using BD LSRFortessa. CCRF-SB cells were used as CD20-positive controls.
Results are shown in FIG. 29, FIG. 30, FIG. 31, and FIG. 32. The horizontal axis represents the expression level of CD20 and the vertical axis represents the number of cells.

| Compound | IC50 ([1]; Homo sapiens) | phospho-IKK band density (anti-phospho-IKK antibody) [2] | CD20 expression level [3] | IC50 [1] |
| --- | --- | --- | --- | --- |
| CCCCC(=O)OC[C@H]1O[C@@H](c2c(O)cc3oc4cc(O)c(O)cc4c(=O)c3c2O)[C@H](OC(=O)CCCC)[C@@H](OC(=O)CCCC)[C@@H]1OC(=O)CCCC [yk-7, 2′,3′,4′,6′-tetra-O-valerylmangiferin] | 288 nM | decrease in band density | significantly increased | – |
| CCCCC(=O)OC[C@H]1O[C@@H](c2c(O)cc3oc4cc(O)c(O)cc4c(=O)c3c2OC(=O)CCCC)[C@H](OC(=O)CCCC)[C@@H](OC(=O)CCCC)[C@@H]1OC(=O)CCCC [yk-8-3, 1,2′,3′,4′,6-penta-O-valerylmangiferin] | 346 nM | decrease in band density | significantly increased | – |
| O=c1c2cc(O)c(O)cc2oc2cc(O)cc(O)c12 [norathyriol, reference compound] | 18400 nM | decrease in band density | – | – |
| CCCCC(=O)OC[C@H]1O[C@@H](c2c(OC(=O)CCCC)cc3oc4cc(OC(=O)CCCC)c(OC(=O)CCCC)cc4c(=O)c3c2OC(=O)CCCC)[C@H](OC(=O)CCCC)[C@@H](OC(=O)CCCC)[C@@H]1OC(=O)CCCC [yk-8-1, 1,3,2′,3′,4′,6,6′,7-octa-O-valerylmangiferin] | – | decrease in band density | significantly increased | > 100000 nM |
| CCCC(=O)OC[C@H]1O[C@@H](c2c(O)cc3oc4cc(O)c(O)cc4c(=O)c3c2O)[C@H](OC(=O)CCC)[C@@H](OC(=O)CCC)[C@@H]1OC(=O)CCC [Compound M14, 2′,3′,4′,6′-tetra-O-butyrylmangiferin] | 2 nM | decrease in band density | significantly increased | – |
| O=c1c2cc(O)c(O)cc2oc2cc(O)cc(OCCO)c12 [Compound M18, 3,6,7-trihydroxy-1-(2-hydroxyethoxy)-9H-xanthen-9-one] | 9580 nM | decrease in band density | significantly increased | – |
| CCC(=O)OC[C@H]1O[C@@H](c2c(O)cc3oc4cc(O)c(O)cc4c(=O)c3c2O)[C@H](OC(=O)CC)[C@@H](OC(=O)CC)[C@@H]1OC(=O)CC [Compound M9, 2′,3′,4′,6′-tetra-O-propionylmangiferin] | 86 nM | decrease in band density | significantly increased | – |
| CC(C)(C)C(=O)OC[C@H]1O[C@@H](c2c(O)cc3oc4cc(O)c(O)cc4c(=O)c3c2O)[C@H](OC(=O)C(C)(C)C)[C@@H](OC(=O)C(C)(C)C)[C@@H]1OC(=O)C(C)(C)C [Compound M15, 2′,3′,4′,6′-tetra-O-pivaloylmangiferin] | 2 nM | decrease in band density | significantly increased | – |
| CCCCO[C@@H]1[C@@H](OCCCC)[C@H](c2c(O)cc3oc4cc(O)c(O)cc4c(=O)c3c2O)O[C@H](COC(=O)CCC)[C@H]1OC(=O)CCC [Compound M16, 2′,3′-di-O-butyl-4′,6′-di-O-butyrylmangiferin] | 11 nM | decrease in band density | significantly increased | – |
| 1,2′,3′,4′,6-penta-O-propionylmangiferin [Compound 8a, reference compound] | – | decrease in band density | – | 8060 nM |
| CCCC(=O)OC[C@H]1O[C@@H](c2c(O)cc3oc4cc(O)c(O)cc4c(=O)c3c2OC(=O)CCC)[C@H](OC(=O)CCC)[C@@H](OC(=O)CCC)[C@@H]1OC(=O)CCC [Compound M12, 1,2′,3′,4′,6-penta-O-butyrylmangiferin] | 5 nM | decrease in band density | significantly increased | – |
| C=CCOc1cc(O)cc2oc3cc(O)c(O)cc3c(=O)c12 [Compound M19, 1-allyloxy-3,6,7-trihydroxy-9H-xanthen-9-one] | 17400 nM | decrease in band density | significantly increased | – |
| CCCC(=O)OC[C@H]1O[C@@H](c2c(OC(=O)CCC)cc3oc4cc(OC(=O)CCC)c(OC(=O)CCC)cc4c(=O)c3c2OC(=O)CCC)[C@H](OC(=O)CCC)[C@@H](OC(=O)CCC)[C@@H]1OC(=O)CCC [Compound M11, 1,3,2′,3′,4′,6,6′,7-octa-O-butyrylmangiferin] | – | decrease in band density | significantly increased | 415 nM |
| CCC(=O)OC[C@H]1O[C@@H](c2c(OC(=O)CC)cc3oc4cc(OC(=O)CC)c(OC(=O)CC)cc4c(=O)c3c2OC(=O)CC)[C@H](OC(=O)CC)[C@@H](OC(=O)CC)[C@@H]1OC(=O)CC [Compound M7, 1,3,2′,3′,4′,6,6′,7-octa-O-propionylmangiferin] | 771 nM | decrease in band density | significantly increased | – |
